From patent publication US20120035187A1 (priority 2009, published 2012)
Where two headings read alike, the source gives them in different places.

What was measured:
[1] = system: PC12-HS cells; experiment: Evaluation B: neurite-outgrowth action in presence of NGF; type: cell-based, rat
[2] = system: PC12-HS cells; conditions: 6-hydroxy dopa, 24 hours
[3] = Hydroxyl radical-scavenging activity, ESR (Fenton reaction)
Experimental: Stock solutions, prepared by dissolving NK-4, NK-19, NK-53, NK-100, and NK-557 in DMSO, were respectively diluted with refined water to give concentrations of 3-folds higher than those in Table 14 and used as test sample solutions. As a positive control, a neuroprotectant, “edaravone”, commercialized as “RADICUT®” containing 3-methyl-1-phenyl-2-pyrazoline-5-one as an effective ingredient by Mitsubishi Tanabe Pharma Corporation, Osaka, Japan, was diluted with refined water to give a concentration of 3-folds higher than that in Table 14 for use. To 50 μl of refined water, 50 μl of 89 mM DMPO ([…]) commercialized by Dojindo Laboratories, Kumamoto, Japan, 50 μl of the test sample solution, and 50 μl of an aqueous solution containing 1 mM hydrogen peroxide, 1 mM FeSO4, and 1 mM DTPA, commercialized by Wako Pure Chemical Industries, Osaka, Japan, were added, mixed for 10 seconds using a vortex mixer and allowed to react in an incubator controlled at 37° for 40 seconds. After 30 seconds from completion of the reaction, the resulting reaction mixture was subjected to ESR measurement. A control solution was prepared by the same method as above except for using 50 μl of a diluted edaravone solution as a substitute for the test sample solution, and subjected to ESR measurement.
The reaction mixture for measuring hydroxyl or peroxyl radicals was poured into a flat quartz cell for ESR, set to “FREE RADICAL MONITOR JES-FR30”, an ESR apparatus commercialized by JOEL Ltd., Tokyo, Japan, and ESR was measured according to manual manner. The residual ratio of peroxyl radical (%) was determined as a relative value by defining the ESR value, obtained by using 0.1 M phosphate buffer as a substitute of the test sample solution, as 100. The results are in Tables 14 and 15. […] Therefore, the IC50 of edaravone was determined by another test using its higher concentration, and the result is also shown in Table 14. The conditions of the ESR measurement were set as follows: […]

[4] = system: PC12-HS cells; experiment: Evaluation A: neurocyte (cell)-growth-promoting action, ALAMAR BLUE; type: cell-based, rat
Experimental: Then, the effects of test samples were judged as follows:
The relative value of 140 to 199: Equivalent effect to that of NK-4, symbol (∘); The relative value of 200 or higher: Stronger effect than that of NK-4, symbol ([…]). • The results are in Table 6.
The relative fluorescent intensity of each well was determined by using the fluorescent intensity of each well with cells, which had been cultured by admixing with D-MEM medium containing 10% by volume of FBS without any of the compounds, and the intensity of the resulting culture was regarded as 100%. The results are expressed as cell survival percentages (%) in Table 9. […]
The test was conducted twice for each test sample in a triplicate manner and the data were averaged.
Seven compounds as in Table 17, NK-234, NK-26, NK-9815, NK-9694, NK-28 and NK-147 as well as NK-4, were each dissolved in DMSO to give a concentration of 5 mg/ml. […] The test was conducted twice for each test sample in a triplicate manner and the data were averaged.

CCCCCCN1C=CC(=CC=C(C=Cc2cc[n+](CCCCCC)c3ccccc23)c2cc[n+](CCCCCC)c3ccccc23)c2ccccc21.[I-].[I-] [NK-9694]
Action on neurite outgrowth (%) ([1]; compound concentration 80 ng/ml): 45 ± 8%
Action on neurite outgrowth (%) ([1]; compound concentration 400 ng/ml): 55 ± 14%
Action on neurite outgrowth (%) ([1]; compound concentration 2000 ng/ml): 38 ± 12%
Action on neurite outgrowth (%) ([1]; compound concentration 10000 ng/ml): 10< %
suppression of cytotoxicity by 6-hydroxy dopa (in words) [2]: significantly suppressed
Survival-cell percentage (%) ([2]; compound 0.83 ng/ml): 62 ± 1%
Survival-cell percentage (%) ([2]; compound 3.3 ng/ml): 68 ± 2 %
Survival-cell percentage (%) ([2]; compound 13 ng/ml): 67 ± 0 %
Survival-cell percentage (%) ([2]; compound 50 ng/ml): 62 ± 3%
Survival-cell percentage (%) ([2]; compound 200 ng/ml): 47 ± 1%
Survival-cell percentage (%) ([2]; compound 800 ng/ml): 42 ± 1%
IC50 (μg/ml) of hydroxyl radical-scavenging activity [3]: 3.4 µg/mL
Action of enhancing cell growth (%) ([4]; compound concentration 25 ng/ml): 269 ± 17%
Action of enhancing cell growth (%) ([4]; compound concentration 50 ng/ml): 123 ± 88%
Action of enhancing cell growth (%) ([4]; compound concentration 100 ng/ml): 402 ± 111%
Action of enhancing cell growth (%) ([4]; compound concentration 200 ng/ml): 320 ± 36%
